Where two headings read alike, the source gives them in different places.
Legend:
SF3b complexes = target: T1, SF3b complexes (Homo sapiens, UniProt O75533+Q7RTV0); experiment: Scintillation proximity assay (SPA) with [3H]-labelled pladienolide probe; type: binding; conditions: SF3B1 (WT); geometric mean; read-out: SPA-ATS GMean IC50 (nM) SF3B1 (WT)
T1 construct: endogenous in cells; host or cells: Nuclear extracts; A HeLa S3 extract preparation is described for the in vitro splicing assay
Outline: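 SF3b complexes captured from nuclear extracts on anti-SF3B1 antibody SPA beads; test compounds pre-incubated 30 min before 2.5 nM [3H]-pladienolide probe added, then 30 min incubation. Bound probe read by scintillation; values from non-linear regression of concentration–response curves.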

[1] = system: NCI-H1568 cells (high MCL1); experiment: Cell proliferation and viability, CellTiter-Glo, 72 hours; type: cell-based; conditions: for GI50: geometric mean
Outline: (§1)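 Cells grown in RPMI-1640 with 10% FBS (Panc 05.04 with added insulin, 15% FBS total) were exposed to an 11-point half-log dilution, typically 10 μM–100 pM, at 0.1% DMSO for 72 h at 37 °C. ATP content was read by CellTiter-Glo luminescence. Percent inhibition was set against a time-zero plate and DMSO vehicle wells, on a −100% (cidal) to 100% (uninhibited growth) scale.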

[2] = system: Panc 05.04 cells (SF3b K700E mutant); experiment: as above; type: cell-based; conditions: for GI50: geometric mean
Outline: as §1

[3] = system: Ad2 variant pre-mRNAs spliced in HeLa S3 nuclear extracts; experiment: In vitro splicing assay (IVS), RT-qPCR of spliced product; type: biochemical; conditions: for IC50: geometric mean; for Ratio Ad2.1/2.2: ratio of IVS IC50 Ad2.1 to Ad2.2
Outline: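 Ad2 variant pre-mRNA (2 ng) with FTZΔi control RNA in HeLa S3 nuclear extract (8 μg) was pre-incubated with compound or DMSO for 15 min at 30 °C. Splicing ran 90 min at 30 °C after adding 0.5 mM ATP, creatine phosphate and MgCl2. Spliced product was quantified by TaqMan RT-qPCR, normalized to DMSO, and curve-fitted.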

[4] = NCI-H1568, read-out: CTGlo-ATS GMean GI50 (nM) 72 h NCIH1568.1, NCIH1568.1 cells, 72 h
[5] = NCIH1568.1 cells, 72 h, −100% cidal, 0% static, 100% maximal growth
[6] = PANC0504.1 cells, 72 h, −100% cidal, 0% static, 100% maximal growth
[7] = Panc 05.04, read-out: CTGlo-ATS GMean GI50 (nM) 72 h PANC0504.1, PANC0504.1 cells, 72 h
[8] = Ad2.1 pre-mRNA substrate, read-out: qPCR-IVS-ATS GMean IC50 (nM) Ad2.1
[9] = Ad2.2 pre-mRNA substrate, read-out: qPCR-IVS-ATS GMean IC50 (nM) Ad2.2
[10] = NCI-H1568, 72 h, read-out: CTGlo-ATS GMean GI50 (nM) 72 h NCIH1568.1, NCIH1568.1 cells, 72 h
[11] = Panc 05.04, 72 h, read-out: CTGlo-ATS GMean GI50 (nM) 72 h PANC0504.1, PANC0504.1 cells, 72 h
[12] = 72 h, NCIH1568.1, -100% = cidal, 0% = static, 100% = uninhibited growth
[13] = NCI-H1568, read-out: CTGlo-ATS GMean GI50 (nM) 72 h NCIH1568.1, 72 h, NCIH1568.1
[14] = 72 h, PANC0504.1, -100% = cidal, 0% = static, 100% = uninhibited growth
[15] = Panc 05.04, read-out: CTGlo-ATS GMean GI50 (nM) 72 h PANC0504.1, 72 h, PANC0504.1

Compound | IC50 (SF3b complexes) | GI50 [1, 4] | CTGlo-ATS Mean MinResponse % 72 h NCIH1568.1 [1, 5] | CTGlo-ATS Mean MinResponse % 72 h PANC0504.1 [2, 6] | GI50 [2, 7] | IC50 [3, 8] | IC50 [3, 9] | GI50 [1, 10] | GI50 [2, 11] | CTGlo-ATS Mean MinResponse % 72 h NCIH1568.1 [1, 12] | GI50 [1, 13] | CTGlo-ATS Mean MinResponse % 72 h PANC0504.1 [2, 14] | GI50 [2, 15] | Ratio Ad2.1/2.2 [3] | GI50 ([1]; NCI-H1568, 72 h, read-out: CTGlo-ATS GMean GI50 (nM) 72 h NCIH1568.1, 72 h, NCIH1568.1) | GI50 ([2]; Panc 05.04, 72 h, read-out: CTGlo-ATS GMean GI50 (nM) 72 h PANC0504.1, 72 h, PANC0504.1)
CNC(=O)[C@H]1CN(c2cc(F)cc(/C=C(\C)[C@H]3OC(=O)C[C@H](O)CC[C@H](C)[C@@H](OC(=O)N4CCN(C)CC4)/C=C/[C@@H]3C)c2)CCO1 [Compound 78] | 1.76 nM | 2.5 nM | −74.454% | −93.916% | 7.33 nM | 24.3 nM | 13.8 nM | – | – | – | – | – | – | – | – | –
C/C(=C\c1cccc(N2CCCS2(=O)=O)c1)[C@H]1OC(=O)C[C@H](O)CC[C@H](C)[C@@H](OC(=O)N2CCN(C)CC2)/C=C/[C@@H]1C [Compound 49] | 3.04 nM | – | −35.275% | −93.022% | – | 16300 nM | 28.3 nM | 11.7 nM | 9.02 nM | – | – | – | – | – | – | –
C/C(=C\c1cccc(S(=O)(=O)NC(C)(C)C)c1)[C@H]1OC(=O)C[C@H](O)CC[C@H](C)[C@@H](OC(=O)N2CCN(C)CC2)/C=C/[C@@H]1C [Compound 208, [(2S,3S,4E,6R,7S,10R)-2-[(E)-1-[3-(tert-butylsulfamoyl)phenyl]prop-1-en-2-yl]-10-hydroxy-3,7-dimethyl-12-oxo-1-oxacyclododec-4-en-6-yl] 4-methylpiperazine-1-carboxylate] | 1.77 nM | – | – | – | – | 1380 nM | 25.1 nM | – | – | −47.371% | 11.6 nM | −94.342% | 9.27 nM | 54.813 | – | –
C/C(=C\c1cccc(S(=O)(=O)NC(C)(C)CO)c1)[C@H]1OC(=O)C[C@H](O)CC[C@H](C)[C@@H](OC(=O)N2CCN(C)CC2)/C=C/[C@@H]1C [Compound 201, [(2S,3S,4E,6R,7S,10R)-10-hydroxy-2-[(E)-1-[3-[(1-hydroxy-2-methylpropan-2-yl)sulfamoyl]phenyl]prop-1-en-2-yl]-3,7-dimethyl-12-oxo-1-oxacyclododec-4-en-6-yl] 4-methylpiperazine-1-carboxylate] | 5.64 nM | – | – | – | – | 620 nM | 17.5 nM | – | – | −48.055% | 27.5 nM | −91.697% | 40.9 nM | 35.485 | – | –
C/C(=C\c1cc(F)cc(N2CCOC[C@@H]2C)c1)[C@H]1OC(=O)C[C@H](O)CC[C@H](C)[C@@H](OC(=O)N2CCN(C)CC2)/C=C/[C@@H]1C [Compound 83] | 4.57 nM | 17.3 nM | −68.447% | −94.723% | 15.6 nM | 159 nM | 49 nM | – | – | – | – | – | – | – | – | –
C/C(=C\c1cc(F)cc(F)c1)[C@H]1OC(=O)C[C@H](O)CC[C@H](C)[C@@H](OC(=O)N2CCN(C)CC2)/C=C/[C@@H]1C [Compound 28] | 10.1 nM | – | −39.539% | −41.132% | – | 8.55 nM | 61.5 nM | 89.6 nM | 42.9 nM | – | – | – | – | – | – | –
C/C(=C\c1cc(F)c2cnn(CC(=O)N3CCCC3)c2c1)[C@H]1OC(=O)C[C@H](O)CC[C@H](C)[C@@H](OC(=O)N2CCN(C)CC2)/C=C/[C@@H]1C [Compound 129] | 4.38 nM | 4.73 nM | −70.909% | −94.183% | 11.3 nM | 32 nM | 15.6 nM | – | – | – | – | – | – | – | – | –
C/C(=C\c1cc(F)cc(N2CCN(C(=O)CC3CC3)CC2)c1)[C@H]1OC(=O)C[C@H](O)CC[C@H](C)[C@@H](OC(=O)N2CCN(C)CC2)/C=C/[C@@H]1C [Compound 121] | 2.99 nM | 2.66 nM | −80.331% | −88.956% | 3.73 nM | 25.5 nM | 22 nM | – | – | – | – | – | – | – | – | –
C/C(=C\c1cccc(NS(=O)(=O)C2CC2)c1)[C@H]1OC(=O)C[C@H](O)CC[C@H](C)[C@@H](OC(=O)N2CCN(C)CC2)/C=C/[C@@H]1C [Compound 216, [(2S,3S,4E,6R,7S,10R)-2-[(E)-1-[3-(cyclopropylsulfonylamino)phenyl]prop-1-en-2-yl]-10-hydroxy-3,7-dimethyl-12-oxo-1-oxacyclododec-4-en-6-yl] 4-methylpiperazine-1-carboxylate] | 3.32 nM | – | – | – | – | 11100 nM | 35.7 nM | – | – | −32.014% | 47.2 nM | −85.005% | 29 nM | 309.648 | – | –
COCC(=O)Nc1cc(F)cc(/C=C(\C)[C@H]2OC(=O)CC(O)CCC(C)[C@@H](OC(=O)N3CCN(C)CC3)/C=C/[C@@H]2C)c1 (stereo in doubt) [Compound 249, [(2S,3S,4E,6R,7R,10S)-2-[(E)-1-[3-fluoro-5-[(2-methoxyacetyl)amino]phenyl]prop-1-en-2-yl]-10-hydroxy-3,7-dimethyl-12-oxo-1-oxacyclododec-4-en-6-yl] 4-methylpiperazine-1-carboxylate] | 5.16 nM | – | – | – | – | 6350 nM | 33.6 nM | – | – | −49.016% | 14.5 nM | −93.297% | 13.8 nM | 188.921 | – | –
CCNS(=O)(=O)c1cccc(/C=C(\C)[C@H]2OC(=O)CC(O)CCC(C)[C@@H](OC(=O)N3CCN(C)CC3)/C=C/[C@@H]2C)c1 (stereo in doubt) [Compound 210, [(2S,3S,4E,6R,7R,10S)-2-[(E)-1-[3-(ethylsulfamoyl)phenyl]prop-1-en-2-yl]-10-hydroxy-3,7-dimethyl-12-oxo-1-oxacyclododec-4-en-6-yl] 4-methylpiperazine-1-carboxylate] | 4.35 nM | – | – | – | – | 11000 nM | 32.7 nM | – | – | −51.154% | – | −96.896% | – | 336.112 | 17 nM | 27.8 nM
C/C(=C\c1cc(F)c2cnn(C3CCOCC3)c2c1)[C@H]1OC(=O)C[C@H](O)CC[C@H](C)[C@@H](OC(=O)N2CCN(C)CC2)/C=C/[C@@H]1C [Compound 116] | 4.45 nM | 1.55 nM | −90.483% | −76.511% | 2.2 nM | 25 nM | 19.2 nM | – | – | – | – | – | – | – | – | –
C/C(=C\c1cc(F)c2cn(C3CCOCC3)nc2c1)[C@H]1OC(=O)C[C@H](O)CC[C@H](C)[C@@H](OC(=O)N2CCN(C)CC2)/C=C/[C@@H]1C [Compound 117] | 9.76 nM | 79.8 nM | −55.709% | −95.049% | 50.2 nM | > 25000 nM | 69.6 nM | – | – | – | – | – | – | – | – | –
C/C(=C\c1cccc(S(=O)(=O)N2CCC(O)CC2)c1)[C@H]1OC(=O)C[C@H](O)CC[C@H](C)[C@@H](OC(=O)N2CCN(C)CC2)/C=C/[C@@H]1C [Compound 95] | 2.32 nM | – | −73.174% | −93.120% | – | 10.3 nM | 10 nM | 2.51 nM | 2.59 nM | – | – | – | – | – | – | –
C/C(=C\c1cc(F)cc(N2CCN(C(=O)CN3CCOCC3)CC2)c1)[C@H]1OC(=O)C[C@H](O)CC[C@H](C)[C@@H](OC(=O)N2CCN(C)CC2)/C=C/[C@@H]1C [Compound 119] | 11.7 nM | 8.84 nM | −81.451% | −75.344% | 8.43 nM | 31 nM | 21.7 nM | – | – | – | – | – | – | – | – | –

Reference: patent US11679107B2 (Eisai R&D Management Co., Ltd., priority 2018, dated 2023)
